Each compound was assayed on CAL-120 (assay: drug sensitivity score (DSS), CellTiter-Blue viability (DSS (AUC-based score)); higher = stronger viability inhibition; extreme values may be limits of the assay). Conditions: incubation time: 72 h.
Method: (§1)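 DSRT with the CellTiter-Blue (resazurin reduction) viability readout, fluorescence 560/590 nm, 72 h incubation. Plates were normalised to DMSO and benzethonium chloride controls. DSS is computed from the area under the fitted dose-response curve (5 or 9 concentrations).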

Structure (SMILES) | drug sensitivity score
O=C(O)CCCc1ccc(N(CCCl)CCCl)cc1 [Chlorambucil] | 0
Cn1c(=O)n(-c2ccc(C(C)(C)C#N)cc2)c2c3cc(-c4cnc5ccccc5c4)ccc3ncc21 [NVP-BEZ235] | 20.4
Cn1cncc1[C@@](N)(c1ccc(Cl)cc1)c1ccc2c(c1)c(-c1cccc(Cl)c1)cc(=O)n2C [Tipifarnib] | 12.4
CN(C)C[C@@H]1CCn2cc(c3ccccc32)C2=C(C(=O)NC2=O)c2cn(c3ccccc23)CCO1 [Ruboxistaurin] | 1.65

The compounds below were run on DU-4475 in the same assay as above. Conditions: incubation time: 72 h.
Method: as §1

Structure (SMILES) | drug sensitivity score
O=C(O)CCCc1ccc(N(CCCl)CCCl)cc1 [Chlorambucil] | 0
Cn1c(=O)n(-c2ccc(C(C)(C)C#N)cc2)c2c3cc(-c4cnc5ccccc5c4)ccc3ncc21 [NVP-BEZ235] | 13.5
Cn1cncc1[C@@](N)(c1ccc(Cl)cc1)c1ccc2c(c1)c(-c1cccc(Cl)c1)cc(=O)n2C [Tipifarnib] | 18.5
CN(C)C[C@@H]1CCn2cc(c3ccccc32)C2=C(C(=O)NC2=O)c2cn(c3ccccc23)CCO1 [Ruboxistaurin] | 6.32

These compounds were tested on HCC1937 in the same assay as above. Conditions: incubation time: 72 h.
Method: as §1

Structure (SMILES) | drug sensitivity score
O=C(O)CCCc1ccc(N(CCCl)CCCl)cc1 [Chlorambucil] | 6.58
Cn1c(=O)n(-c2ccc(C(C)(C)C#N)cc2)c2c3cc(-c4cnc5ccccc5c4)ccc3ncc21 [NVP-BEZ235] | 14.5
Cn1cncc1[C@@](N)(c1ccc(Cl)cc1)c1ccc2c(c1)c(-c1cccc(Cl)c1)cc(=O)n2C [Tipifarnib] | 15.3
CN(C)C[C@@H]1CCn2cc(c3ccccc32)C2=C(C(=O)NC2=O)c2cn(c3ccccc23)CCO1 [Ruboxistaurin] | 6.14

These compounds were tested on CAL-148 in the same assay as above. Conditions: incubation time: 72 h.
Method: as §1

Structure (SMILES) | drug sensitivity score
O=C(O)CCCc1ccc(N(CCCl)CCCl)cc1 [Chlorambucil] | 0
Cn1c(=O)n(-c2ccc(C(C)(C)C#N)cc2)c2c3cc(-c4cnc5ccccc5c4)ccc3ncc21 [NVP-BEZ235] | 19.5
Cn1cncc1[C@@](N)(c1ccc(Cl)cc1)c1ccc2c(c1)c(-c1cccc(Cl)c1)cc(=O)n2C [Tipifarnib] | 18.8
CN(C)C[C@@H]1CCn2cc(c3ccccc32)C2=C(C(=O)NC2=O)c2cn(c3ccccc23)CCO1 [Ruboxistaurin] | 3.06

Each compound was assayed on MFM-223 in the same assay as above. Conditions: incubation time: 72 h.
Method: as §1

Structure (SMILES) | drug sensitivity score
O=C(O)CCCc1ccc(N(CCCl)CCCl)cc1 [Chlorambucil] | 0
Cn1c(=O)n(-c2ccc(C(C)(C)C#N)cc2)c2c3cc(-c4cnc5ccccc5c4)ccc3ncc21 [NVP-BEZ235] | 19.7
Cn1cncc1[C@@](N)(c1ccc(Cl)cc1)c1ccc2c(c1)c(-c1cccc(Cl)c1)cc(=O)n2C [Tipifarnib] | 7.2
CN(C)C[C@@H]1CCn2cc(c3ccccc32)C2=C(C(=O)NC2=O)c2cn(c3ccccc23)CCO1 [Ruboxistaurin] | 6.81

What follows are compounds tested on MDA-MB-436 in the same assay as above. Conditions: incubation time: 72 h.
Method: as §1

Structure (SMILES) | drug sensitivity score
O=C(O)CCCc1ccc(N(CCCl)CCCl)cc1 [Chlorambucil] | 0
Cn1c(=O)n(-c2ccc(C(C)(C)C#N)cc2)c2c3cc(-c4cnc5ccccc5c4)ccc3ncc21 [NVP-BEZ235] | 5.52
Cn1cncc1[C@@](N)(c1ccc(Cl)cc1)c1ccc2c(c1)c(-c1cccc(Cl)c1)cc(=O)n2C [Tipifarnib] | 0
CN(C)C[C@@H]1CCn2cc(c3ccccc32)C2=C(C(=O)NC2=O)c2cn(c3ccccc23)CCO1 [Ruboxistaurin] | 10.7

What follows are compounds tested on CAL-85-1 in the same assay as above. Conditions: incubation time: 72 h.
Method: as §1

Structure (SMILES) | drug sensitivity score
O=C(O)CCCc1ccc(N(CCCl)CCCl)cc1 [Chlorambucil] | 0
Cn1c(=O)n(-c2ccc(C(C)(C)C#N)cc2)c2c3cc(-c4cnc5ccccc5c4)ccc3ncc21 [NVP-BEZ235] | 16.2
Cn1cncc1[C@@](N)(c1ccc(Cl)cc1)c1ccc2c(c1)c(-c1cccc(Cl)c1)cc(=O)n2C [Tipifarnib] | 6.87
CN(C)C[C@@H]1CCn2cc(c3ccccc32)C2=C(C(=O)NC2=O)c2cn(c3ccccc23)CCO1 [Ruboxistaurin] | 0

What follows are compounds tested on BT-549 in the same assay as above. Conditions: incubation time: 72 h.
Method: as §1

Structure (SMILES) | drug sensitivity score
O=C(O)CCCc1ccc(N(CCCl)CCCl)cc1 [Chlorambucil] | 0
Cn1c(=O)n(-c2ccc(C(C)(C)C#N)cc2)c2c3cc(-c4cnc5ccccc5c4)ccc3ncc21 [NVP-BEZ235] | 18.5
Cn1cncc1[C@@](N)(c1ccc(Cl)cc1)c1ccc2c(c1)c(-c1cccc(Cl)c1)cc(=O)n2C [Tipifarnib] | 5.66
CN(C)C[C@@H]1CCn2cc(c3ccccc32)C2=C(C(=O)NC2=O)c2cn(c3ccccc23)CCO1 [Ruboxistaurin] | 3.74

Each compound was assayed on MDA-MB-231 in the same assay as above. Conditions: incubation time: 72 h.
Method: as §1

Structure (SMILES) | drug sensitivity score
O=C(O)CCCc1ccc(N(CCCl)CCCl)cc1 [Chlorambucil] | 0
Cn1c(=O)n(-c2ccc(C(C)(C)C#N)cc2)c2c3cc(-c4cnc5ccccc5c4)ccc3ncc21 [NVP-BEZ235] | 17
Cn1cncc1[C@@](N)(c1ccc(Cl)cc1)c1ccc2c(c1)c(-c1cccc(Cl)c1)cc(=O)n2C [Tipifarnib] | 11.7
CN(C)C[C@@H]1CCn2cc(c3ccccc32)C2=C(C(=O)NC2=O)c2cn(c3ccccc23)CCO1 [Ruboxistaurin] | 4.1

What follows are compounds tested on HDQ-P1 in the same assay as above. Conditions: incubation time: 72 h.
Method: as §1

Structure (SMILES) | drug sensitivity score
O=C(O)CCCc1ccc(N(CCCl)CCCl)cc1 [Chlorambucil] | 0
Cn1c(=O)n(-c2ccc(C(C)(C)C#N)cc2)c2c3cc(-c4cnc5ccccc5c4)ccc3ncc21 [NVP-BEZ235] | 16.2
Cn1cncc1[C@@](N)(c1ccc(Cl)cc1)c1ccc2c(c1)c(-c1cccc(Cl)c1)cc(=O)n2C [Tipifarnib] | 13.3
CN(C)C[C@@H]1CCn2cc(c3ccccc32)C2=C(C(=O)NC2=O)c2cn(c3ccccc23)CCO1 [Ruboxistaurin] | 3.47

The compounds below were run on MDA-MB-468 in the same assay as above. Conditions: incubation time: 72 h.
Method: as §1

Structure (SMILES) | drug sensitivity score
O=C(O)CCCc1ccc(N(CCCl)CCCl)cc1 [Chlorambucil] | 4.32
Cn1c(=O)n(-c2ccc(C(C)(C)C#N)cc2)c2c3cc(-c4cnc5ccccc5c4)ccc3ncc21 [NVP-BEZ235] | 13.3
Cn1cncc1[C@@](N)(c1ccc(Cl)cc1)c1ccc2c(c1)c(-c1cccc(Cl)c1)cc(=O)n2C [Tipifarnib] | 3.09
CN(C)C[C@@H]1CCn2cc(c3ccccc32)C2=C(C(=O)NC2=O)c2cn(c3ccccc23)CCO1 [Ruboxistaurin] | 6.34

These compounds were tested on MDA-MB-453 (assay: normalised viability (% of control), CellTiter-Blue; higher = more viable cells (about 100 = DMSO control)). Conditions: 1000 nM; incubation time: 72 h.
Procedure, shortened: (§2)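 The reported quantity is normalised viability at a single listed concentration of the series. Compound in 5 µl medium was pre-dispensed into 384-well plates and 20 µl of breast cancer cell suspension was added for 72 h. A 2 h, 37 °C CellTiter-Blue step (2.5 µl) preceded fluorescence reading at 560/590 nm, and plates were normalised to vehicle (100) and a positive kill control (0).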

Structure (SMILES) | normalised viability
Cn1c(=O)n(-c2ccc(C(C)(C)C#N)cc2)c2c3cc(-c4cnc5ccccc5c4)ccc3ncc21 [NVP-BEZ235] | 13.8%

Same assay, conditions: 10000 nM; incubation time: 72 h

Structure (SMILES) | normalised viability
O=C(O)CCCc1ccc(N(CCCl)CCCl)cc1 [Chlorambucil] | 65%
Cn1cncc1[C@@](N)(c1ccc(Cl)cc1)c1ccc2c(c1)c(-c1cccc(Cl)c1)cc(=O)n2C [Tipifarnib] | 19.9%
CN(C)C[C@@H]1CCn2cc(c3ccccc32)C2=C(C(=O)NC2=O)c2cn(c3ccccc23)CCO1 [Ruboxistaurin] | 0.78%

Each compound was assayed on CAL-51 in the same assay as above. Conditions: 1000 nM; incubation time: 72 h.
Procedure, shortened: as §2

Structure (SMILES) | normalised viability
Cn1c(=O)n(-c2ccc(C(C)(C)C#N)cc2)c2c3cc(-c4cnc5ccccc5c4)ccc3ncc21 [NVP-BEZ235] | 8.61%

Same assay, conditions: 10000 nM; incubation time: 72 h

Structure (SMILES) | normalised viability
O=C(O)CCCc1ccc(N(CCCl)CCCl)cc1 [Chlorambucil] | 96.5%
Cn1cncc1[C@@](N)(c1ccc(Cl)cc1)c1ccc2c(c1)c(-c1cccc(Cl)c1)cc(=O)n2C [Tipifarnib] | 20.4%
CN(C)C[C@@H]1CCn2cc(c3ccccc32)C2=C(C(=O)NC2=O)c2cn(c3ccccc23)CCO1 [Ruboxistaurin] | 27.4%
